According to the supplement of paper PMC10307832:

Experiments:
Assay in all cases: relative viability (nuclei count vs DMSO), 5 days (fraction); higher = more cells survive
Venetoclax + OSI-027 = compound: CC1(C)CCC(CN2CCN(c3ccc(C(=O)NS(=O)(=O)c4ccc(NCC5CCOCC5)c([N+](=O)[O-])c4)c(Oc4cnc5[nH]ccc5c4)c3)CC2)=C(c2ccc(Cl)cc2)C1 [Venetoclax] + COc1cccc2cc(-c3nc([C@H]4CC[C@H](C(=O)O)CC4)n4ncnc(N)c34)[nH]c12 [OSI-027] (partner 0.5 µM)
Summary of the method: (§1)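 Relative viability is defined as nuclei in treated wells over nuclei in vehicle wells. Duplicate plates were run and medians reported. Lung cancer cell lines in 1536-well plates were dosed by pin tool one day after seeding, with one drug or with a fixed anchor-drug dose plus five library-drug doses (not always all listed) in √10 steps, and nuclei were counted after 5 days.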

Venetoclax + Linsitinib = compound: CC1(C)CCC(CN2CCN(c3ccc(C(=O)NS(=O)(=O)c4ccc(NCC5CCOCC5)c([N+](=O)[O-])c4)c(Oc4cnc5[nH]ccc5c4)c3)CC2)=C(c2ccc(Cl)cc2)C1 [Venetoclax] + C[C@]1(O)C[C@@H](c2nc(-c3ccc4ccc(-c5ccccc5)nc4c3)c3c(N)nccn32)C1 [Linsitinib] (partner 1 µM)
Summary of the method: as §1

Venetoclax + Phenformin = compound: CC1(C)CCC(CN2CCN(c3ccc(C(=O)NS(=O)(=O)c4ccc(NCC5CCOCC5)c([N+](=O)[O-])c4)c(Oc4cnc5[nH]ccc5c4)c3)CC2)=C(c2ccc(Cl)cc2)C1 [Venetoclax] + N=C(N)NC(=N)NCCc1ccccc1 [Phenformin] (partner 250 µM)
Summary of the method: as §1

Selumetinib + Luminespib = compound: Cn1cnc2c(F)c(Nc3ccc(Br)cc3Cl)c(C(=O)NOCCO)cc21 [Selumetinib] + CCNC(=O)c1noc(-c2cc(C(C)C)c(O)cc2O)c1-c1ccc(CN2CCOCC2)cc1 [Luminespib] (partner 0.01 µM)
Summary of the method: as §1

Cell Line | relative viability (Venetoclax + OSI-027; first compound 0.01 µM) | relative viability (Venetoclax + OSI-027; first compound 0.03162 µM) | relative viability (Venetoclax + OSI-027; first compound 0.1 µM) | relative viability (Venetoclax + OSI-027; first compound 0.3162 µM) | relative viability (Venetoclax + OSI-027; first compound 1 µM) | relative viability (Venetoclax + Linsitinib; first compound 0.01 µM) | relative viability (Venetoclax + Linsitinib; first compound 0.03162 µM) | relative viability (Venetoclax + Linsitinib; first compound 0.1 µM) | relative viability (Venetoclax + Linsitinib; first compound 0.3162 µM) | relative viability (Venetoclax + Linsitinib; first compound 1 µM) | relative viability (Venetoclax + Phenformin; first compound 0.01 µM) | relative viability (Venetoclax + Phenformin; first compound 0.03162 µM) | relative viability (Venetoclax + Phenformin; first compound 0.1 µM) | relative viability (Venetoclax + Phenformin; first compound 0.3162 µM) | relative viability (Venetoclax + Phenformin; first compound 1 µM) | relative viability (Selumetinib + Luminespib; first compound 0.02 µM) | relative viability (Selumetinib + Luminespib; first compound 0.06325 µM) | relative viability (Selumetinib + Luminespib; first compound 0.2 µM) | relative viability (Selumetinib + Luminespib; first compound 0.6325 µM)
LCLC-103H | 0.5 | 0.492 | 0.502 | 0.404 | 0.404 | 1.1 | 1.24 | 1.16 | 1.13 | 0.989 | 0.335 | 0.298 | 0.352 | 0.313 | 0.333 | 0.922 | 0.876 | 0.831 | 0.697
COR-L 105 | 0.71 | 0.737 | 0.552 | 0.707 | 0.73 | 0.934 | 0.943 | 0.834 | 0.81 | 0.871 | 0.583 | 0.462 | 0.462 | 0.493 | 0.458 | 0.769 | 0.689 | 0.46 | 0.404
NCI-H2009 | 0.655 | 0.668 | 0.602 | 0.624 | 0.573 | 1.2 | 1.14 | 1.09 | 1.09 | 1.11 | 0.48 | 0.459 | 0.439 | 0.446 | 0.337 | 0.826 | 0.753 | 0.558 | 0.371
NCI-H2023 | 0.44 | 0.363 | 0.313 | 0.427 | 0.312 | 0.685 | 0.636 | 0.657 | 0.682 | 0.678 | 0.434 | 0.393 | 0.435 | 0.434 | 0.378 | 0.947 | 0.669 | 0.575 | 0.575
SW 1573 | 0.573 | 0.658 | 0.585 | 0.506 | 0.529 | 0.93 | 0.766 | 0.916 | 0.835 | 0.891 | 0.425 | 0.373 | 0.327 | 0.47 | 0.392 | 0.207 | 0.168 | 0.214 | 0.228
NCI-H2405 | 0.64 | 0.711 | 0.624 | 0.612 | 0.619 | 0.931 | 0.955 | – | 0.989 | 0.9 | 0.343 | 0.357 | 0.348 | 0.404 | 0.379 | 0.603 | 0.597 | 0.426 | 0.327
HCC-44 | 0.609 | 0.652 | 0.539 | 0.589 | 0.477 | 0.613 | 0.728 | 0.67 | 0.664 | 0.609 | 0.362 | 0.153 | 0.165 | 0.161 | 0.182 | 1.33 | 1.03 | 0.909 | 0.519
EMC-BAC-2 | 0.405 | 0.441 | 0.371 | 0.403 | 0.353 | 0.789 | 0.834 | 0.816 | 0.814 | 0.787 | 0.483 | 0.524 | 0.519 | 0.512 | 0.475 | 1.19 | 1.18 | 1.1 | 1.12
NCI-H322M | 0.667 | 0.575 | 0.605 | 0.564 | 0.48 | 0.913 | 0.916 | 0.889 | 0.891 | 0.852 | 0.781 | 0.793 | 0.763 | 0.886 | 0.803 | 0.739 | 0.547 | 0.572 | 0.481
NCI-H358 | 0.747 | 0.841 | 0.697 | 0.83 | 0.695 | 0.754 | 0.812 | 0.624 | 0.679 | 0.702 | 0.369 | 0.291 | 0.282 | 0.406 | 0.325 | 0.284 | 0.148 | 0.292 | 0.127
NCI-H1944 | 0.483 | 0.431 | 0.378 | 0.411 | 0.376 | 1.4 | 1.28 | 1.15 | 1.16 | 1.23 | 0.216 | 0.197 | 0.183 | 0.212 | 0.205 | 0.907 | 0.59 | 0.48 | 0.445
H3255 | 0.577 | 0.541 | 0.493 | 0.506 | 0.668 | 1 | 0.953 | 0.809 | 0.873 | 0.915 | 0.407 | 0.43 | 0.348 | 0.345 | 0.414 | 1.04 | 0.918 | 1.05 | 0.87
NCI-H1993 | 0.562 | 0.505 | 0.519 | 0.486 | 0.605 | 0.73 | 0.651 | 0.739 | 0.775 | 0.749 | 0.603 | 0.494 | 0.473 | 0.48 | 0.528 | 0.786 | 0.776 | 0.695 | 0.569
NCI-H650 | 0.533 | 0.552 | 0.561 | 0.528 | 0.459 | 0.912 | 0.843 | – | 1.04 | 0.754 | 0.439 | 0.487 | 0.438 | 0.488 | 0.435 | 0.836 | 0.677 | 0.73 | 0.651
NCI-H460 | 0.681 | 0.592 | 0.585 | 0.62 | 0.515 | 0.827 | 0.829 | 0.665 | 0.632 | 0.726 | 0.424 | 0.55 | 0.478 | 0.497 | 0.461 | 0.0285 | 0.0384 | 0.041 | 0.0306
NCI-H1437 | 0.942 | 0.888 | 0.845 | 0.763 | 0.802 | 0.92 | 1.08 | 0.975 | 0.952 | 0.932 | 0.377 | 0.348 | 0.266 | 0.34 | 0.296 | 1.15 | 1.13 | 1.03 | 0.782
